Assay results: publication PMC11820102, “Molecular Dynamics-Assisted Discovery of Novel Phosphodiesterase-5 Inhibitors Targeting a Unique Allosteric Pocket” (Molecules, 2025)

Legend:
PDE5A1 [1] = target: T1, PDE5A1 (Homo sapiens, UniProt O76074); test: radiometric 3H-cGMP hydrolysis assay, inhibition ratio at […]; assay type: biochemical; set-up: gene PDE5A; catalytic domain, amino acids 535–860
PDE10A = PDE10A (Homo sapiens, UniProt Q9Y233); test: radiometric 3H-cAMP/3H-cGMP hydrolysis assay, single concentration; assay type: biochemical
Sequence of PDE10A (Q9Y233 whole entry, the tested form may be a part): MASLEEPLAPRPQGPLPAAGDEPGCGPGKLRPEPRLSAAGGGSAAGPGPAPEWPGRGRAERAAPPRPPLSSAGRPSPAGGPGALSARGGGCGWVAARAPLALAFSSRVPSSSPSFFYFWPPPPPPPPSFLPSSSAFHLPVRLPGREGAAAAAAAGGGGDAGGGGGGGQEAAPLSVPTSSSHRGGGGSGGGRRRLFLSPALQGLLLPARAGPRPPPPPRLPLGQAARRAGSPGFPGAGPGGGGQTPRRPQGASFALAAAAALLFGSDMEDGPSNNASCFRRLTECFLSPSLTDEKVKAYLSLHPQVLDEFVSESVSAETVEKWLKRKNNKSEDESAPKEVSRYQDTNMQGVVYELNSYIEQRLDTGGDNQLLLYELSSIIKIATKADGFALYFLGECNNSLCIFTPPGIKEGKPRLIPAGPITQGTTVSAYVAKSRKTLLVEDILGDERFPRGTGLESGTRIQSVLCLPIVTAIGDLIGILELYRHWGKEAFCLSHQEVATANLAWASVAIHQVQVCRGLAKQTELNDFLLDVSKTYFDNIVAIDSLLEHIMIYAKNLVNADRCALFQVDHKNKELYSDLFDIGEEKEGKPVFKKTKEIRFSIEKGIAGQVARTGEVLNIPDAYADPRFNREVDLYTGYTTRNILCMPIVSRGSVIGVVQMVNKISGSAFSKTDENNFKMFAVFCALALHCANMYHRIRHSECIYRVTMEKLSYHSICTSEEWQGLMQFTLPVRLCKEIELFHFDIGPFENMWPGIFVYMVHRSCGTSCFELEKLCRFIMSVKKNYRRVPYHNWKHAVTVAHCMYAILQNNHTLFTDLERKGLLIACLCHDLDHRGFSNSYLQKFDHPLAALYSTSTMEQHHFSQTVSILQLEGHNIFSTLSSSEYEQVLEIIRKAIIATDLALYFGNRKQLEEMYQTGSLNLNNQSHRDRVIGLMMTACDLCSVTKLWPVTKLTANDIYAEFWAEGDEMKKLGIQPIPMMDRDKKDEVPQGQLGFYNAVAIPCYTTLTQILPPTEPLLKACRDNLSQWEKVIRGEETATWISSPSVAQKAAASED

PDE5A1 [2] = target: T1, PDE5A1; test: radiometric 3H-cGMP hydrolysis assay, dose-response; assay type: biochemical; set-up: gene PDE5A; catalytic domain, amino acids 535–860
PDE11A = PDE11A (Homo sapiens, UniProt Q9HCR9); test: radiometric 3H-cAMP/3H-cGMP hydrolysis assay, single concentration; assay type: biochemical
Sequence of PDE11A (Q9HCR9 whole entry): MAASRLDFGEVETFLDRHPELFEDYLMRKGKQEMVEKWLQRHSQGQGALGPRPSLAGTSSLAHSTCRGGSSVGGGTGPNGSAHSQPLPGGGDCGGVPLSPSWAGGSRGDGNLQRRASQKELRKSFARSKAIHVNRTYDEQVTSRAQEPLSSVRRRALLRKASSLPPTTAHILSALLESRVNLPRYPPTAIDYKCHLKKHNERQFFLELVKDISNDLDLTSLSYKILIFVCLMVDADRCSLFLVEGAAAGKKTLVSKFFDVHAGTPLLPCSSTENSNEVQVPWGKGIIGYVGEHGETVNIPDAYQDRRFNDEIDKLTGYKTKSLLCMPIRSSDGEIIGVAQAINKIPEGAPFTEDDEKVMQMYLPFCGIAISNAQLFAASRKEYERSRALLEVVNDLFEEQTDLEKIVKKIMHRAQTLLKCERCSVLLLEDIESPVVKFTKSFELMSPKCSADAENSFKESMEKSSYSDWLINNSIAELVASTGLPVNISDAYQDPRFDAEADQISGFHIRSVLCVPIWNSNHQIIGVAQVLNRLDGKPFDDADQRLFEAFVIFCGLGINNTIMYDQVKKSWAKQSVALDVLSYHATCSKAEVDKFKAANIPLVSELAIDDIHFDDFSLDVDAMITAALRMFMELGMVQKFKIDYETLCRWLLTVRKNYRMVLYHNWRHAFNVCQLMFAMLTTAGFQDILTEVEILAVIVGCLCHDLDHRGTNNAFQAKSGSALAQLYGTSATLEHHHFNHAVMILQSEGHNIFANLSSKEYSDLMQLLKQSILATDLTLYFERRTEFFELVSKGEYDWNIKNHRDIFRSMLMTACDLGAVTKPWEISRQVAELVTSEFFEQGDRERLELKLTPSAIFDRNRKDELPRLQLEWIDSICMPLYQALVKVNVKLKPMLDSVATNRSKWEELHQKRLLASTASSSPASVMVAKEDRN

PDE5A1 [3] = target: T1, PDE5A1; set-up: gene PDE5A

Row | inhibition at 10 µM (PDE5A1 [1]) | SMILES | other results
1 | > 50% | CC1(C2CCc3c(O)c4c(c(O)c3C2)C(=O)c2ccccc2C4=O)OCCO1 (stereo not drawn) [AE-508/36401018] | 
2 | > 50% | COc1ccc(-c2cc3[nH]nc(N)c3c(=O)[nH]2)cc1 [AR-270/43409613] | 

Further lines, the compound ahead of its results:

Row | SMILES | inhibition at 10 µM (PDE5A1 [1]) | other results
3 | COc1cc([N+](=O)[O-])cc2c1C(=O)Nc1ccccc1O2 [AG-205/40649212] | > 50% | 
4 | COc1cccc2c1C(=O)c1c(O)ccc(O)c1C2=O [AG-650/41069360] | > 50% | 
5 | Cc1sc(N)c2c(=O)oc3c4ccccc4ccc3c12 [AI-898/12177002] |  | % inhibition at 10 μM (PDE10A): 79; IC50 (PDE5A1 [2]): 1.6 µM; % inhibition at 10 μM (PDE11A): 63
6 | COc1cccc2c1C(=O)/C(=C/c1ccc(N(C)C)cc1)C2 [AT-051/43410123] | > 50% | 
7 | CCCc1nn(C)c2c(=O)[nH]c(-c3cc(S(=O)(=O)N4CCN(C)CC4)ccc3OCC)nc12 [Sildenafil] |  | % inhibition at 10 nM (PDE5A1 [3]): > 50
